# According to patent publication US8933105B2, “Pyrrole compounds” (Takeda Pharmaceutical Company Limited, priority 2007, dated 2015):
# Key:
# Caspase-3/7 = Caspase-3/7 activity test (Caspase-Glo 3/7 Assay); type: cell-based, Human; details: HepG2, 30 μM, culture for one day, relative to maximum with Staurosporine (100%) and no test reagent (0%)
# Method: (§1) Human liver cancer-derived cell line HepG2 (ATCC No. HB-8065) was passaged using Dulbecco's Modified Eagle medium (DMEM; Invitrogen) containing 10% fetal bovine serum (FBS; TRACE SCIENTIFIC LTD.), 1 mmol/L sodium pyruvate (Invitrogen), 2 mmol/L L-glutamine (Invitrogen), 50 IU/mL penicillin (Invitrogen) and 50 μg/mL streptomycin (Invitrogen) at 5% CO2, 37° C. The test reagent was prepared with DMSO to 10 mM, and further diluted with DMEM medium containing 0.5% FBS, 1 mmol/L sodium pyruvate, 2 mmol/L L-glutamine, 50 IU/mL penicillin and 50 μg/mL streptomycin to a final concentration of DMSO of 0.1%. HepG2 (2×10^4 cells/well) was cultured on a 96 well white plate (Costar) with the test reagent at 5% CO2, 37° C. After culture for one day, the intracellular ATP content was measured using ATPLite™ (PerkinElmer Life Sciences). The results are shown in Table 26 (n≧3, average value±SD) as a relative value (%) to control (without addition of drug) at 30 μM.
# Caspase-3/7 Activity Test
# The Caspase-3/7 activity in the cells cultured for one day by a method similar to that in Experimental Example 2 was measured using Caspase-Glo 3/7 Assay (Promega). The results are shown in Table 26 (n≧3, average value±SD) as relative activity (%) of each reagent based on the maximum value of Caspase-3/7 activity when exposed to Staurosporine (100%), and the activity without addition of a test reagent (0%).
# HepG2 = assay: ATP content test (intracellular ATP content, ATPLite); type: cell-based, Human; details: HepG2, 30 μM, culture for one day, relative value to control (without addition of drug)
# Method: as §1
# [1] = biological target: T1, proton, potassium-adenosine triphosphatase (H+,K+-ATPase) (Sus scrofa, UniProt P19156); assay: Proton potassium-adenosine triphosphatase (H+,K+-ATPase) inhibitory activity test; type: biochemical; details: swine gastric microsomal fraction, pH 6.5, 37° C.
# T1 construct: a gastric mucous membrane microsomal fraction was prepared from the stomach of swine; from tissue; host or cells: swine stomach, gastric mucous membrane microsomal fraction
# T1 sequence (P19156 2-1034 limits assumed): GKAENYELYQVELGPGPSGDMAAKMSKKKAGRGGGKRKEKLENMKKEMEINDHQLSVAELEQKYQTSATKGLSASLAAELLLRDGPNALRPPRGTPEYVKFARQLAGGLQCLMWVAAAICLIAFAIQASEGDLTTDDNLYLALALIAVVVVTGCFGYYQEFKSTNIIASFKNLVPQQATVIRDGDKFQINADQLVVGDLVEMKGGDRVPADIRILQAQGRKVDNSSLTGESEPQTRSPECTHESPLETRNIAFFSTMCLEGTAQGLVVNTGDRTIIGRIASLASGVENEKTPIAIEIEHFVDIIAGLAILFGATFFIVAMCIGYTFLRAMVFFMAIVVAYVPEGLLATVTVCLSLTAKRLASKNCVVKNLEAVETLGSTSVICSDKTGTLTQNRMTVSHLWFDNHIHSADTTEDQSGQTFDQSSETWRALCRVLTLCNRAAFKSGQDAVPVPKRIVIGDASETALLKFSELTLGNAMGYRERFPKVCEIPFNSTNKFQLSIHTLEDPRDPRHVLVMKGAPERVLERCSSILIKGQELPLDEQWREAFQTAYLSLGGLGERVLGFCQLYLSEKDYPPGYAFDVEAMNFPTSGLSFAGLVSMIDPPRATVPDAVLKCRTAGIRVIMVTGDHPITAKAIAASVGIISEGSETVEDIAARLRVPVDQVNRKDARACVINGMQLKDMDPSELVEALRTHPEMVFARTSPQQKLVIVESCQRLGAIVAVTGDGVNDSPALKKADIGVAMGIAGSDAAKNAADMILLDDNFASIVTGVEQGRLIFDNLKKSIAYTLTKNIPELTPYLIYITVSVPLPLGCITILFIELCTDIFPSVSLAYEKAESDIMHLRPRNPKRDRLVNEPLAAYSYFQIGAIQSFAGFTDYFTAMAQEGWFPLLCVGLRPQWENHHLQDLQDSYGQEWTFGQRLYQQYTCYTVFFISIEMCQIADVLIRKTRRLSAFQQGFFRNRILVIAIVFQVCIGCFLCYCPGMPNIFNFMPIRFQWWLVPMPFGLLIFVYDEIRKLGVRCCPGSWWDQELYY
# T1 sequence (P18434 whole entry partner): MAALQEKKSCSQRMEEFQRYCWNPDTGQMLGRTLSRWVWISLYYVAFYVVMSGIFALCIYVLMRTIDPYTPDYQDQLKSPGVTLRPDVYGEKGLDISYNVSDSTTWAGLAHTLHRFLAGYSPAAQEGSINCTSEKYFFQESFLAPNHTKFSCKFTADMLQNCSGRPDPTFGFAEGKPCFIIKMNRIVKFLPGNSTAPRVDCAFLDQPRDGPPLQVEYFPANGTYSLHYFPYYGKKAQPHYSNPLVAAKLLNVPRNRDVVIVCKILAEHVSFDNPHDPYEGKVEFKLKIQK
# Method: Proton Potassium-Adenosine Triphosphatase (H^+,K^+-ATPase) Inhibitory Activity Test
# According to the method [Biochim. Biophys. Acta, 728, 31 (1983)] of Wallmark et al., a gastric mucous membrane microsomal fraction was prepared from the stomach of swine. First, the stomach was removed, washed with tap water, immersed in 3 mol/L brine, and the surface of the mucous membrane was wiped with a paper towel. The gastric mucous membrane was detached, chopped, and homogenized in a 0.25 mol/L saccharose solution (pH 6.8) containing 1 mmol/L EDTA and 10 mmol/L tris-hydrochloric acid using polytron (Kinematica). The obtained homogenate was centrifuged at 20,000×g for 30 min and the supernatant was centrifuged at 100,000×g for 90 min. The precipitate was suspended in 0.25 mol/L saccharose solution, superimposed on a 0.25 mol/L saccharose solution containing 7.5% Ficoll, and centrifuged at 100,000×g for 5 hr. The fraction containing the interface between the both layers was recovered, and centrifugally washed with 0.25 mol/L saccharose solution.
# The obtained microsomal fraction was used as a proton, potassium-adenosine triphosphatase standard product.
# To 40 μL of a 50 mmol/L HEPES-tris buffer (5 mmol/L magnesium chloride, 10 mmol/L potassium chloride, 10 μmol/L valinomycin, pH=6.5) containing 2.5 μg/mL (based on the protein concentration) of the enzyme standard product was added a test compound (5 μL) dissolved in a 10% aqueous dimethyl sulfoxide solution, and the mixture was incubated at 37° C. for 30 min. The enzyme reaction was started by adding 5 μL of a 2 mmol/L adenosine triphosphate tris salt solution (50 mmol/L HEPES-tris buffer (5 mmol/L magnesium chloride, pH 6.5)). The enzyme reaction was carried out at 37° C. for 20 min, and 15 μL of a malachite green solution (0.12% malachite green solution in sulfuric acid (2.5 mol/L), 7.5% ammonium molybdate and 11% Tween 20 were mixed at a ratio of 100:25:2) was added to quench the reaction. After allowing to stand at room temperature for 15 min, the resulting reaction product of inorganic phosphorus with malachite green was calorimetrically determined at a wavelength of 610 nm. In addition, the amount of the inorganic phosphoric acid in the reaction solution free of potassium chloride was measured in the same manner, which was subtracted from the inorganic phosphoric acid amount in the presence of potassium chloride to determine the proton, potassium-adenosine triphosphatase activity. The inhibitory rate (%) was determined from the activity value of the control and the activity values of various concentrations of the test compound, and the 50% inhibitory concentration (IC50) of the proton, potassium-adenosine triphosphatase was determined.
Structure (SMILES),"Caspase-3/7 activity (%, 30 μM) (Caspase-3/7)","ATP content (%, 30 μM) (HepG2)",IC50 [1]
"CNCc1cc(-c2cccnc2C#N)n(S(=O)(=O)c2ccccc2Cl)c1.Cl [Example 99, 3-{1-[(2-chlorophenyl)sulfonyl]-4-[(methylamino)methyl]-1H-pyrrol-2-yl}pyridine-2-carbonitrile hydrochloride]",0.0%,82.7%,0.27 µM
"CNCc1cn(S(=O)(=O)c2nccs2)c(-c2cccnc2F)c1F.Cl [Example 83, 1-[4-fluoro-5-(2-fluoropyridin-3-yl)-1-(1,3-thiazol-2-ylsulfonyl)-1H-pyrrol-3-yl]-N-methylmethanamine hydrochloride]",0.3%,96.6%,0.18 µM
"CNCc1cc(-c2cccnc2C#N)n(S(=O)(=O)c2ccccc2)c1.Cl [Example 16, 3-{4-[(methylamino)methyl]-1-(phenylsulfonyl)-1H-pyrrol-2-yl}pyridine-2-carbonitrile hydrochloride]",0%,97.1%,0.12 µM
"CNCc1cn(S(=O)(=O)c2cnn(C(F)F)c2)c(-c2cccnc2F)c1F.Cl [Example 81, 1-[1-{[1-(difluoromethyl)-1H-pyrazol-4-yl]sulfonyl}-4-fluoro-5-(2-fluoropyridin-3-yl)-1H-pyrrol-3-yl]-N-methylmethanamine hydrochloride]",−0.2%,101.7%,0.3 µM
"CNCc1cn(S(=O)(=O)c2ccoc2)c(-c2cccnc2F)c1F.Cl [Example 50, 1-[4-fluoro-5-(2-fluoropyridin-3-yl)-1-(3-furylsulfonyl)-1H-pyrrol-3-yl]-N-methylmethanamine hydrochloride]",−0.3%,99.8%,0.06 µM
